For experiment [1], the system named is VEGF expression in DU145 cells. Kind of experiment: VEGF transcription in Du145 cells in vitro. It counts as cell-based, human. Particulars: 24 hour treatment. The procedure: Human prostate cancer Du145 cells were exposed to Cpd A or SAHA (3 microM) for 24 hours. Total RNA was collected by Isogen (Nippongene, Tokyo, Japan) and reverse-transcribed to cDNA by ExScript® RT reagent Kit (TAKARA, Kyoto, Japan). The expression level of bFGF mRNA was detected by ABI7700 analyzer using probe/primer pre-mixture reagent (ABI, Cat# Hs00266645_m1, CA, USA) and TaqMan® Universal PCR Master Mix (ABI, Cat# 430-4437) as described in the ABI's protocol. The expression level of VEGF mRNA was detected in a similar manner using the appropriate probe/primer reagents.

Experiment [2] deals with co-cultured human endothelial cells. In words: Human multicellular angiogenesis model (AngioKit). In kind it is cell-based. The settings on record: AngioKit, 30, 100 and 300 nM. The procedure: Briefly, 24 well plates were seeded with cells on day 0 and medium was changed on days 3, 4, 7, 10 and 12. […] All AngioKits were then fixed and stained on day 14, using the CD31 Staining Kits according to the standard AngioKit procedure. Comparison of tubule development was conducted using the “AngioSys” image analysis system developed specifically for the analysis of images produced using the AngioKit. Four images taken from predetermined positions within each well were recorded. Each concentration of test compound therefore yielded […] for analysis in duplicate. Images were always taken from as close to the centre of each quadrant as possible. Four tubule parameters were measured: total tubule length, total tubule area, number of branch points and number of tubules formed. All statistical analyses were carried out using the Stat 100 programme from BIOSOFT Ltd. using ANOVA and Duncan's Multiple Comparison Test to measure differences between the test compounds with the untreated control values. Alpha was always 0.05 unless otherwise stipulated.

Experiment [3] deals with MT3 transcription in human colon cancer HCT15 cells. In words: MT3 transcription in HCT15 cells, real time RT-PCR. It counts as cell-based. The settings on record: 1 uM. As to the method: (§1) Total RNAs were extracted from cell pellets or from tumors using QiaShredder and RNeasy mini kit (Qiagen). 1 μg RNA was converted into cDNA using Expand RT enzyme (Roche) and Oligo(dT) primers (Invitrogen) in a 20 μl reaction volume. For quantitative real-time PCR, the primers used for MT3 were [NT] and [NT] and those for β-actin were [NT] and [NT]. Reactions with either pair of primers included an annealing temperature of 63.4° C. All real-time PCR reactions were performed on the MasterCycler ep Realplex (Eppendorf) using FastStart SYBRGreen Master (Roche).

For experiment [4], the system named is MT3 transcription in human myeloma RPMI-8226 cells. Kind of experiment: MT3 transcription in RPMI-8226 cells, real time RT-PCR. It counts as cell-based. Particulars: 24 hours. As to the method: as §1
A general note: Quantitative PCR measures a nucleic acid by following its amplification.

In experiment [5] the test system is bFGF expression in A549 (NSCLC) xenografts. In words: bFGF expression in A549 xenografts. It counts as in vivo. Particulars: 150 mg/kg, p.o., qdx3.
Experiment [6] concerns human H460 non-small cell lung tumor xenograft. In words: H460 xenograft, iv-iv combination with taxol. It counts as in vivo, mouse. The settings on record: H460, Compound A 40 mg/kg i.v. with taxol 60 mg/kg i.v., single dose day 1. As to the method: Antitumor studies were done using human H460 non-small cell lung tumor xenograft model in male BALBc/A nude mice (from Japan Crea Inc., Japan). Male nude mice were used at age 8-10 weeks. Human carcinoma cells were injected subcutaneously in the animal flank and allowed to form solid tumors. Tumor fragments (about 2 mm^3 fragments) were then removed and implanted subcutaneously to the right flank of other animals. […] Tumor volumes and gross body weight of animals were monitored twice weekly for up to 15 days. Each experimental group contained 6 animals.

Experiment [7] has the same test system. In words: H460 xenograft, combination with taxotere. The settings on record: H460, oral Compound A 3 times weekly with taxotere i.v. single dose. It counts as in vivo, mouse. The procedure: Antitumor studies were done using human H460 non-small cell lung tumor xenograft model in male BALBc/A nude mice (from Japan Crea Inc., Japan). Male nude mice were used at age 8-10 weeks. Human carcinoma cells were injected subcutaneously in the animal flank and allowed to form solid tumors. Tumor fragments (about 2 mm^2 fragments) were then removed and implanted subcutaneously to the right flank of other animals. […] Tumor volumes and gross body weight of animals were monitored twice weekly for up to 3 weeks. Each experimental group contained 6 animals.

In experiment [8] the test system is human AZ521 gastric tumor xenograft. In words: AZ521 gastric tumor xenograft, combination with taxol. The settings on record: AZ521, Compound D 40 mg/kg oral daily 14 days with taxol 20 mg/kg i.v. It counts as in vivo, mouse. The procedure:
Antitumor studies were done using human AZ521 gastric tumor xenograft model in male BALBc/A nude mice (from Japan Crea Inc., Japan). Male nude mice were used at age 8-10 weeks. Human carcinoma cells were injected subcutaneously in the animal flank and allowed to form solid tumors. Tumor fragments (about 2 mm^2 fragments) were then removed and implanted subcutaneously to the right flank of other animals. When the tumor sizes reached about 100 to 200 mm^3, recipient animals were treated Compound D (40 mg/kg, suspended with 0.5% HPMC) by oral administration alone, or taxol by i.v. injection (20 mg/kg), or combination of taxol with oral administration of Compound D. Typically, taxol was administered once per week by iv injection on the first day as a single administration, while Compound D was administered once daily for 14 days. Tumor volumes and gross body weight of animals were monitored twice weekly for up to 2 weeks. Each experimental group contained 6 animals.

With `Nc1ccccc1NC(=O)c1ccc(CNc2nccc(-c3cccnc3)n2)cc1` [Compound A], the VEGF expression result in experiment [1] is reported as “suppression”. Also, the tubule length result in experiment [2] was “inhibits”. In addition, the results for the MT3 transcription result in experiment [3] and in experiment [4] were “much more potent than SAHA” and “dose-dependent induction”, respectively. The bFGF expression result in experiment [5] is “suppression”. Also, the “antitumor activity of taxol” value in experiment [6] was “Potentiation”. The “antitumor activity of taxotere” value in experiment [7] is listed as “Potentiation”.
Regarding `Nc1ccc(-c2ccccc2)cc1NC(=O)c1ccc(N2CC[C@H](N)C2)cc1` [Compound D], the “antitumor activity of taxol” value in experiment [8] is on record as “Potentiation”.

The record behind these values is patent US20090124631A1, “Combination Therapy” (priority 2007, published 2009).
